In doi:10.1101/2025.04.25.650653, “Hierarchical small molecule inhibition of MYST acetyltransferases” (bioRxiv, 2025):
Several values for one entry are separate records, joined by “and”; a condition that tells them apart may be missing. Equal values may be shown once.

Tested on: histone modifications in MCF-7 cells
Assay: Histone modification analysis by bottom-up LC-MS/MS
Format: cell-based
Conditions: Replicates 1-3
Source text: In this approach. […] Histones are then extracted from cell pellets and chemically derivatized with propionic anhydride, digested with trypsin, subjected to a second round of propionylation, and analyzed by LC-MS/MS. Measuring the relative intensity of modified versus unmodified forms of individual histone peptides enables simultaneous monitoring of multiple potential biomarkers of MYST inhibition. To minimize false positives, we focused on abundant and reproducible modifications (average stoichiometry of greater than 1% across triplicate samples, standard deviation less than or equal to the average measurement). To account for potential histone modification crosstalk, changes in both acetylated and methylated peptides were evaluated. 38 modified peptides passed this reproducible detection threshold including several established KAT biomarkers[41] including H3K9Ac (KAT2A/B), H3K18Ac (KAT3A/B), H3K14Ac (KAT7), H3K23Ac (KAT6A/B), H4K16Ac (KAT8), and H2A.ZK4/K7Ac (KAT5; Fig. 4B).
Histone modification analysis
MCF-7 cells were cultured at 37 °C under 5% CO2 in EMEM (Quality Biological, 112-016-101) with 0.01 mg/mL human recombinant insulin (Sigma Aldrich, 91077C), 2 mM L-glutamine (Quality Biological, 118- […]
human recombinant insulin.
1119, WM-3835). Following 24 h inhibitor treatment, cells were washed with ice-cold 1× PBS and scraped in 150 µL of Nuclear Isolation Buffer (NIB) containing 0.1% NP-40 for histone extraction using a modified protocol from the Garcia laboratory. 9 Briefly, cell suspensions were incubated on ice for 5 minutes, and […]
nuclei were pelleted by centrifugation (600 rcf, 4°C, 5 min). Pelleted nuclei were washed twice with 150 μL of detergent-free NIB buffer, followed by centrifugation (600 rcf, 4°C, 5 min) to remove all detergent.
Nuclei were then resuspended in 400 μL of 0.4 N H₂SO₄ and rotated at 4°C overnight for acid extraction of histones. The following day, samples were centrifuged (11,000 rcf, 4°C, 10 min) and the histone-containing supernatant was transferred to a fresh tube. Trichloroacetic acid (100% TCA) was added to achieve a final concentration of 20% (v/v), tubes were inverted once to mix, and histone precipitation was performed on ice for at least 3 hours or overnight at 4°C. Precipitated histones were collected by centrifugation (11,000 rcf, 4°C, 10 min) and the supernatant carefully removed, leaving a visible film of histones on the tube wall or bottom. Histone pellets were subjected to sequential washes with 1 mL of ice-cold acidified acetone (0.1% 12 N HCl) followed by 1 mL of 100% ice-cold acetone, with centrifugation (11,000 rcf, 4°C, 5 min) after each wash. Samples were air-dried at room temperature, resuspended in 40 µL of ddH₂O, and protein […]
analysis, 1-2 µg of purified histones were loaded per lane and processed according to the general immunoblotting protocol described in General Materials and Methods.
Analysis of histone modifications by LC-MS/MS
Preparation of histone samples for LC-MS/MS was performed analogously to the procedure for immunoblotting above, with the following modifications. MCF7 cells (4.2 × 106) were seeded in 15 cm dishes and treated with PF-9363 or vehicle. Experiments were performed in triplicate. Following treatment and PBS washing, cells were scraped and collected in 15 mL falcon tubes, pelleted (500 rcf, 4°C, 5 min), resuspended in 1 mL cold PBS, transferred to microcentrifuge tubes, and pelleted again before flash-freezing in liquid nitrogen for storage at -80°C. For extraction, cell pellets (~100 μL) were resuspended in NIB buffer at a 1:10 ratio, and cells were lysed with NIB buffer containing 0.2% NP-40 for 8 minutes on ice. Nuclei were pelleted at 1,000 rcf for 8 minutes and washed three times with 500 μL detergent-free NIB buffer. Histones were extracted using 800 μL of 0.2 M H₂SO₄, and after centrifugation (3,400 rcf, 4°C, 10

Compound: COc1cccc(OC)c1S(=O)(=O)Nc1noc2cc(Cn3cccn3)cc(OC)c12 [PF-9363]
- Ratio, H2A1_4_11 unmod (PF-9363 1): 0.8988 and 0.8885 and 0.9043
- Ratio, H2A1_36_42 unmod (PF-9363 1): 0.9987 (2×) and 0.999
- Ratio, H2A3_36_42 unmod (PF-9363 1): 1
- Ratio, H2AJ_4_11 K5acK9ac (PF-9363 1): 0.8841 and 0.8218 and 0.8897
- Ratio, H2AV_1_19 K4ac (PF-9363 1): 0.04613 and 0.03379 and 0.05235
- Ratio, H2AV_1_19 unmod (PF-9363 1): 0.7904 and 0.9003 and 0.7876
- Ratio, H2AX_4_11 unmod (PF-9363 1): 0.3103 and 0.2578 and 0.2996
- Ratio, H2AX_36_42 unmod (PF-9363 1): 1
- Ratio, H2AZ_1_19 K11ac (PF-9363 1): 0.007104 and 0.02367 and 0.02119
- Ratio, H2AZ_1_19 unmod (PF-9363 1): 0.8748 and 0.8677 and 0.8766
- Ratio, H3_73_83 K79me1 (PF-9363 1): 0.08571 and 0.09293 and 0.08865
- Ratio, H3_73_83 K79me2 (PF-9363 1): 0.07582 and 0.06553 and 0.05074
- Ratio, H3_73_83 unmod (PF-9363 1): 0.8373 and 0.84 and 0.8592
- Ratio, H4_4_17 K12acK16ac (PF-9363 1): 0.009843 and 0.01149 and 0.01038
- Ratio, H4_4_17 unmod (PF-9363 1): 0.6943 and 0.6691 and 0.6837
- Ratio, H4_20_23 K20me1 (PF-9363 1): 0.04112 and 0.02779 and 0.03237
- Ratio, H4_20_23 unmod (PF-9363 1): 0.02967 and 0.03053 and 0.03337
- Ratio, H2A1_1_11 K5ac (PF-9363 10): 0.7349 and 0.6528 and 0.8541
- Ratio, H2A1_4_11 K5ac (PF-9363 10): 0.05941 and 0.05561 and 0.05439
- Ratio, H2A1_4_11 K9ac (PF-9363 10): 0.0376 and 0.02679 and 0.04578
- Ratio, H2A1_4_11 unmod (PF-9363 10): 0.8844 and 0.9105 and 0.8938
- Ratio, H2A1_36_42 unmod (PF-9363 10): 0.9994 and 0.9989 and 0.9987
- Ratio, H2A3_36_42 unmod (PF-9363 10): 1
- Ratio, H2AJ_4_11 K5acK9ac (PF-9363 10): 0.87 and 0.9304 and 0.8571
- Ratio, H2AV_1_19 K4ac (PF-9363 10): 0.03545 and 0 and 0.04516
- Ratio, H2AV_1_19 unmod (PF-9363 10): 0.7519 and 0 and 0.8693
- Ratio, H2AX_4_11 unmod (PF-9363 10): 0.3078 and 0.3089 and 0.315
- Ratio, H2AX_36_42 unmod (PF-9363 10): 0.9999 and 1 (2×)
- Ratio, H2AZ_1_19 K11ac (PF-9363 10): 0.002627 and 0 and 0.03573
- Ratio, H2AZ_1_19 unmod (PF-9363 10): 0.8481 and 0 and 0.8795
- Ratio, H3_73_83 K79me1 (PF-9363 10): 0.0968 and 0.09055 and 0.1061
- Ratio, H3_73_83 K79me2 (PF-9363 10): 0.04989 and 0 and 0.05862
- Ratio, H3_73_83 unmod (PF-9363 10): 0.8517 and 0.9094 and 0.8343
- Ratio, H4_4_17 K12acK16ac (PF-9363 10): 0.004929 and 0.3101 and 0.006064
- Ratio, H4_4_17 unmod (PF-9363 10): 0.8097 and 0 and 0.7957
- Ratio, H4_20_23 K20me1 (PF-9363 10): 0.03215 and 0 and 0.02863
- Ratio, H4_20_23 unmod (PF-9363 10): 0.01905 and 0.02691 and 0.02102
- Ratio, H2A1_1_11 K5ac (PF-9363 30): 0.8425 and 0.9367 and 0.7907
- Ratio, H2A1_4_11 K5ac (PF-9363 30): 0.04965 and 0.0448 and 0.04948
- Ratio, H2A1_4_11 K9ac (PF-9363 30): 0.02646 and 0.04262 and 0.03503
- Ratio, H2A1_4_11 unmod (PF-9363 30): 0.9191 and 0.9063 and 0.9088
- Ratio, H2A1_36_42 unmod (PF-9363 30): 0.9989 and 0.9987 and 0.9988
- Ratio, H2A3_36_42 unmod (PF-9363 30): 1
- Ratio, H2AJ_4_11 K5acK9ac (PF-9363 30): 0.9299 and 0.8746 and 0.8721
- Ratio, H2AV_1_19 K4ac (PF-9363 30): 0.04726 and 0.04134 and 0.0354
- Ratio, H2AV_1_19 unmod (PF-9363 30): 0.8732 and 0.735 and 0.7339
- Ratio, H2AX_4_11 unmod (PF-9363 30): 0.3537 and 0.3214 and 0.3151
- Ratio, H2AX_36_42 unmod (PF-9363 30): 1
- Ratio, H2AZ_1_19 K11ac (PF-9363 30): 0 and 0.03845 and 0.003881
- Ratio, H2AZ_1_19 unmod (PF-9363 30): 1 and 0.8991 and 0.9454
- Ratio, H3_73_83 K79me1 (PF-9363 30): 0.07412 and 0.08491 and 0.08741
- Ratio, H3_73_83 K79me2 (PF-9363 30): 0.05912 and 0.06141 and 0.04678
- Ratio, H3_73_83 unmod (PF-9363 30): 0.865 and 0.8523 and 0.8643
- Ratio, H4_4_17 K12acK16ac (PF-9363 30): 0.3308 and 0.002262 and 0.2125
- Ratio, H4_4_17 unmod (PF-9363 30): 0.05921 and 0.8851 and 0.358
- Ratio, H4_20_23 K20me1 (PF-9363 30): 0 and 0.03437 and 0.03685
- Ratio, H4_20_23 unmod (PF-9363 30): 0.02728 and 0.02218 and 0.01429
